Reference: patent US7462227B2 (E.I. du Pont de Nemours and Company, priority 2005, dated 2008)
Entries after “also recorded” stand apart in the source; their conditions may differ.

Tests used:
[1] = tested on: termites; settings: Connick et al 2001; cited from earlier work
[2] = Solubility
Method: In general, solubility of the complex is determined by visual observation, and a complex is considered to be solbilized when a sufficient amount of the complex is dissolved in the solution to permit a desired amount of the complex to be adsorbed on and/or absorbed in the cellulosic material when the treatment thereof occurs.

| SMILES | toxicity to termites [1] | solubility in methanol and ethanol [2] | solubility in water [2] |
| --- | --- | --- | --- |
| CC(C)Cc1ccc(C(C)C(=O)O)cc1 (centres unmarked) [ibuprofen] | toxic | soluble | relatively insoluble; also recorded: only slightly soluble |
| CC(C)Cc1ccc(C(C)C(=O)[O-])cc1.[Na+] (centres unmarked) [sodium ibuprofenate] |  | soluble | relatively insoluble |
